The text below walks through data of patent publication US8809314B1, “Cephalosporin compound” (Cubist Pharmaceuticals, Inc., priority 2012, dated 2014).

For experiment [1], the system named is MRSA #712. Briefly: Mouse septicemia (systemic infection), PD50. Type of experiment: in vivo, Staphylococcus aureus. To be noted: CD-1 mice, IP inoculum, 2 SC doses at 1 and 6 hrs, 7 day survival. The protocol: In vivo efficacy of (I) was evaluated against strains of MRSA, and ceftazidime-resistant Pa and Klebsiella pneumonia (Kpn) in mouse septicemia, thigh and lung infections. Septicemia: CD-1 mice received lethal bacterial inocula IP, followed by 2 doses of antibiotics SC at 1 and 6 hrs post-inoculation. Dose calculated to protect 50% of the mice (PD50) was derived based on probit analysis of percentage survival. Thigh and lung infections: Thighs or lungs of neutropenic mice were inoculated with MRSA or Pa. Two treatment doses were given SC at 1 and 6 hrs post-inoculation. Tissues were harvested at ˜24 hrs post-inoculation and bacterial burdens quantified.
II. […] MIC was determined in MHB by standard CLSI microdilution. […] The survival of animals was recorded daily for 7 days. The antibiotic dose calculated to protect 50% of the mice (PD50) was derived based on probit analysis of percentage survival. • E. Mouse Thigh and Lung Infections: Mice were rendered neutropenic by two IP injections of cyclophosphamide 4 days (150 mg/kg) and 1 day (100 mg/kg) before bacterial inoculation. […] Tissue bacterial burdens were quantified by serial dilution and spiral plating of homogenates.
III. […] The dose that protected 50% of the mice (PD50) was calculated by probit analysis based on percentage of mice surviving for 7 days post-inoculation. • C. […]

The subject of another experiment is Kpn #573. Put plainly: MIC in MHB by standard CLSI microdilution (Example 4). Type of experiment: cell-based. To be noted: Klebsiella pneumoniae; Kpn #573; read-out: MIC. The source says:
(§1) II. Methods • A. Animals: Six week-old, specific pathogen free, female CD-1 mice purchased from Charles River Laboratories (Wilmington, Mass.) were used for all studies after acclimation in Cubist animal facility. All animal procedures were approved by the Cubist Institutional Animal Care and Use Committee. • B. Bacteria and In Vitro Susceptibility Testing: MRSA #712, Pseudomonas aeruginosa #2245 and #2545, and Klebsiella pneumoniae #573 are clinical isolates; Pseudomonas aeruginosa #44 is an ATCC strain (ATCC#27853). MIC was determined in MHB by standard CLSI microdilution. Comparator Antibiotics Used in Animal Studies: Vancomycin hydrochloride USP was purchased from Hospira (Lake Forest, Ill.); ceftazidime hydrate from Sigma; Primaxin (imipenem and cilastatin) from Merck; ceftaroline was synthesized at a CRO. • D. Mouse Septicemia: Mice received lethal inocula of bacteria in 6% hog gastric mucin intraperitoneally (IP), followed by two treatment doses of antibiotics via subcutaneous (SC) administration at 1 and 6 hrs post-inoculation. The survival of animals was recorded daily for 7 days. The antibiotic dose calculated to protect 50% of the mice (PD50) was derived based on probit analysis of percentage survival. • E. Mouse Thigh and Lung Infections: Mice were rendered neutropenic by two IP injections of cyclophosphamide 4 days (150 mg/kg) and 1 day (100 mg/kg) before bacterial inoculation. Thigh or lung infection was induced by an intramuscular injection of 0.2 mL or intranasal inoculation of 0.1 mL inoculum preparation from an overnight bacterial culture into left thigh or nares. Tissues from one group of mice receiving no treatment (No Rx) were harvested at 1 hr for determination of baseline of bacterial burden. The remaining mice received two treatment doses of vehicles or antibiotics given SC at 1 and 6 hrs post-inoculation. Tissues from the treated mice were harvested at ˜24 hrs post-inoculation. Tissue bacterial burdens were quantified by serial dilution and spiral plating of homogenates.

The test system of experiment [2] is MRSA #712. The description is as above. Type of experiment: cell-based. To be noted: Staphylococcus aureus; MRSA #712; read-out: MIC.
Description: as §1

In a further experiment the test system is Pa #2545. Described as above. Type of experiment: cell-based. The note with it: Pseudomonas aeruginosa.
Description: as §1

The next experiment concerns Pa #44 (ATCC27853). The description is as above. Format: cell-based. The note with it: Pseudomonas aeruginosa.
Description: as §1

The next experiment deals with Pa2086 (mucoid strain). Briefly: MIC, broth microdilution (Example 5), Table 3. Format: cell-based. To be noted: Pseudomonas aeruginosa. On the procedure: (§2) II. […] MIC90 values were defined as the concentration required to inhibit growth of 90% of the strains tested. • C. SAR was performed using the following isolates: Sa399 (ATCC43300, MRSA), Sa1721 (NARSA NRS384, MRSA USA 300), Pa44 (ATCC27853), and 4 clinical isolates (Pa2241, Pa2086 (mucoid strain), Pa2694 and Pa2698). • D. The in vitro antibacterial activity of the compound of formula (I) was further evaluated in an expanded MRSA and Pa MIC panel (see Table 4 and FIG. 6).

The next experiment has as its system Pa2241. Briefly: MIC, broth microdilution (Example 5), Table 3. Type of experiment: cell-based. To be noted: Pseudomonas aeruginosa. On the procedure:
as §2

For a further experiment, the system named is Pa2694. Briefly: MIC, broth microdilution (Example 5), Table 3. Format: cell-based. To be noted: Pseudomonas aeruginosa. On the procedure:
as §2

Another experiment deals with Pa2698. Briefly: MIC, broth microdilution (Example 5), Table 3. Type of experiment: cell-based. The note with it: Pseudomonas aeruginosa. On the procedure: as §2
The subject of a further experiment is Pa44 (ATCC27853). Briefly: MIC, broth microdilution (Example 5), Table 3. Format: cell-based. To be noted: Pseudomonas aeruginosa. On the procedure:
as §2

The subject of experiment [3] is Sa1721 (NARSA NRS384, MRSA USA 300). Briefly: MIC, broth microdilution (Example 5), Table 3. Type of experiment: cell-based. To be noted: Staphylococcus aureus. On the procedure: as §2
In the next experiment the test system is Sa399 (ATCC43300, MRSA). Put plainly: MIC, broth microdilution (Example 5), Table 3. Format: cell-based. To be noted: Staphylococcus aureus. On the procedure: as §2
A further experiment concerns MRSA (n = 21). Put plainly: MIC90, expanded MIC panel (Table 4). Format: cell-based. The note with it: Staphylococcus aureus; 21 MRSA strains; read-out: MIC90 MRSA (n = 21). The protocol: as §2
Experiment [4] deals with Pseudomonas aeruginosa (n = 100). Briefly: MIC90, expanded MIC panel (Table 4). Type of experiment: cell-based. To be noted: 100 Pa strains. On the procedure: as §2

Converted amounts (≈) assume the structure as drawn.

Turning to `CO/N=C(\C(=O)N[C@@H]1C(=O)N2C(C(=O)[O-])=C(C[n+]3ccc(N)c(NC(=O)Nc4ccc(CCNC(=N)N)cc4)c3)CS[C@H]12)c1nc(N)sc1Cl` [(I)], in the experiment on MRSA #712 [1], the “Septicemia PD50 (± SE)” value came to 2.0 ± 0.3 mg/kg. Moreover, the MIC in the experiment on Kpn #573 is 1 µg/mL (≈ 1.35 µM); in the experiment on MRSA #712 [2] it was 2 µg/mL (≈ 2.69 µM); against Pa #2545, 2 µg/mL (≈ 2.69 µM); in the experiment on Pa #44 (ATCC27853) it was 1 µg/mL (≈ 1.35 µM); against Pa2086 (mucoid strain) it was 8 µg/mL (≈ 10.8 µM); against Pa2241 it was 1 µg/mL (≈ 1.35 µM). The minimal inhibitory concentration (MIC) was found to be 8 µg/mL (≈ 10.8 µM) in the experiment on Pa2694; 8 µg/mL (≈ 10.8 µM) in the experiment on Pa2698; 2 µg/mL (≈ 2.69 µM) against Pa44 (ATCC27853); 8 µg/mL (≈ 10.8 µM) in [3]; 2 µg/mL (≈ 2.69 µM) against Sa399 (ATCC43300, MRSA). For the same molecule, the MIC90 was 2 µg/mL (≈ 2.69 µM) with MRSA (n = 21) and 8 µg/mL (≈ 10.8 µM) in experiment [4].
